Experimental data published in patent US8138168B1 (Takeda Pharmaceutical Company Limited, priority 2007, dated 2012).

Biological target: T1, Recombinant human renin (Homo sapiens, UniProt P00797)
T1 construct: isolate the active form (residues 67-406); made in house; host or cells: FreeStyle 293-F cells (transient expression of pcDNA3.1(+)/hREN)
T1 sequence (P00797 67-406): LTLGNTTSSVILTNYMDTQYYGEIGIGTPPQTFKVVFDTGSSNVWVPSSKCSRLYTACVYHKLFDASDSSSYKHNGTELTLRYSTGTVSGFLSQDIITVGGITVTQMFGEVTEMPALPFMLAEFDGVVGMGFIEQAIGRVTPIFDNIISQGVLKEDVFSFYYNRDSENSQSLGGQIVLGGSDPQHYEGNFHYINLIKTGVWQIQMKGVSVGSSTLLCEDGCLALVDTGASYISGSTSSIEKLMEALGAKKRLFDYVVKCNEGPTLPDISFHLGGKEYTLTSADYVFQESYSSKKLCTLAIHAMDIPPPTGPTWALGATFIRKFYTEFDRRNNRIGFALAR
Experiment: In vitro enzymatic activity assay of renin inhibitors (fluorogenic peptide substrate)
Format: biochemical
Conditions: read-out: IC50 of Exemplified Compounds Against Renin
Summary of the method: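 Enzyme: recombinant human renin, 3 nM final, 10 min compound pre-incubation at 37 °C; buffer 50 mM Hepes pH 7.4 with 0.1 mg/mL BSA or extra 2% BSA; 5% DMSO.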

Compound | IC50 [µM]
COCCCn1c([C@@H]2CCCN(C(=O)C[C@@H](N)COc3cccc(OC)c3)C2)nc2ccccc21 [Compound 433, (R)-3-amino-4-(3-methoxyphenoxy)-1-((R)-3-(1-(3-methoxypropyl)-1H-benzo[d]imidazol-2-yl)piperidin-1-yl)butan-l-one] | > 1
COCCCn1c([C@@H]2CCCN(C(=O)C[C@H](N)Cc3ccc(-c4cnc(N)nc4)cc3)C2)nc2ccccc21 [Compound 154, (R)-3-amino-4-(4-(2-aminopyrimidin-5-yl)phenyl)-1-((R)-3-(1-(3-methoxypropyl)-1H-benzo[d]imidazol-2-yl)piperidin-1-yl)butan-1-one] | < 0.1
COCCCn1c([C@@H]2CCCN(C(=O)C[C@H](N)Cc3ccc(-c4cccnc4Cl)cc3)C2)nc2ccccc21 [Compound 167, (R)-3-amino-4-(4-(2-chloropyridin-3-yl)phenyl)-1-((R)-3-(1-(3-methoxypropyl)-1H-benzo[d]imidazol-2-yl)piperidin-1-yl)butan-1-one] | < 0.1
COCCCn1c(C2CCCN(C(=O)C[C@H](N)c3ccccc3)C2)nc2ccccc21 (stereo partly drawn) [Compound 66, (3S)-3-amino-1-(3-(1-(3-methoxypropyl)-1H-benzo[d]imidazol-2-yl)piperidin-1-yl)-3-phenylpropan-1-one] | > 1
COCCCn1c([C@@H]2CCCN(C(=O)C[C@H](N)Cc3cccc(-c4ccccc4)c3)C2)nc2ccccc21 [Compound 122, (R)-3-amino-4-(biphenyl-3-yl)-1-((R)-3-(1-(3-methoxypropyl)-1H-benzo[d]imidazol-2-yl)piperidin-1-yl)butan-1-one] | < 0.1
COCCCn1c([C@@H]2CCCN(C(=O)[C@@H]3CN(S(=O)(=O)c4ccccc4C(=O)OC)C[C@H]3N)C2)nc2ccccc21 [Compound 373, methyl 2-((3S,4R)-3-amino-4-((R)-3-(1-(3-methoxypropyl)-1H-benzo[d]imidazol-2-yl)piperidine-1-carbonyl)pyrrolidin-l-ylsulfonyl)benzoate] | 0.1 to 1
COCCCn1c([C@@H]2CCCN(C(=O)C[C@H](N)Cc3ccc(F)c(F)c3)C2)nc2ccccc21 [Compound 76, (R)-3-amino-4-(3,4-difluorophenyl)-1((R)-3-(1-(3-methoxypropyl)-1H-benzo[d]imidazol-2-yl)piperidin-1-yl)butan-1-one] | 0.1 to 1

Results, then the compound that gave them:

IC50 [µM] | Compound
< 0.1 | COCCCn1c([C@@H]2CCCN(C(=O)C[C@H](N)Cc3ccc(-c4ccccc4OC)cc3)C2)nc2ccccc21 [Compound 159]
< 0.1 | COCCCn1c([C@@H]2CCCN(C(=O)C[C@H](N)Cc3ccc(-c4ccncc4OC)cc3)C2)nc2ccccc21 [Compound 144, (R)-3-amino-1-((R)-3-(1-(3-methoxypropyl)-1H-benzo[d]imidazol-2-yl)piperidin-1-yl)-4-(4-(3-methoxypyridin-4-yl)phenyl)butan-1-one]
> 1 | COCCCn1c([C@@H]2CCCN(C(=O)[C@@H]3CN(S(=O)(=O)c4cccc5c4ccn5C)C[C@H]3N)C2)nc2ccccc21 [Compound 392, ((3R,4S)-4-amino-1-(1-methyl-1H-indol-4-ylsulfonyl)pyrrolidin-3-yl)((R)-3-(1-(3-methoxypropyl)-1H-benzo[d]imidazol-2-yl)piperidin-1-yl)methanone]
< 0.1 | COCCCn1c([C@@H]2CCCN(C(=O)C[C@H](N)CNC(=O)Nc3ccc(OC)cc3)C2)nc2ccccc21 [Compound 253, 1-((S)-2-amino-4-((R)-3-(1-(3-methoxypropyl)-1H-benzo[d]imidazol-2-yl)piperidin-1-yl)-4-oxobutyl)-3-(4-methoxyphenyl)urea]
< 0.1 | COCCCNC(=O)c1ccc(-c2ccc(C[C@@H](N)CC(=O)N3CCC[C@@H](c4nc5ccccc5n4CCCOC)C3)cc2)cc1 [Compound 180, 4′-((R)-2-amino-4-((R)-3-(1-(3-methoxypropyl)-1H-benzo[d]imidazol-2-yl)piperidin-1-yl)-4-oxobutyl)-N-(3-methoxypropyl)biphenyl-4-carboxamide]
